These results are taken from paper PMC3206302 (The Journal of General Physiology, 2011).

The experiment deals with T1, TRPV3 (Mus musculus, UniProt Q8K424).
T1 sequence (Q8K424 1-791): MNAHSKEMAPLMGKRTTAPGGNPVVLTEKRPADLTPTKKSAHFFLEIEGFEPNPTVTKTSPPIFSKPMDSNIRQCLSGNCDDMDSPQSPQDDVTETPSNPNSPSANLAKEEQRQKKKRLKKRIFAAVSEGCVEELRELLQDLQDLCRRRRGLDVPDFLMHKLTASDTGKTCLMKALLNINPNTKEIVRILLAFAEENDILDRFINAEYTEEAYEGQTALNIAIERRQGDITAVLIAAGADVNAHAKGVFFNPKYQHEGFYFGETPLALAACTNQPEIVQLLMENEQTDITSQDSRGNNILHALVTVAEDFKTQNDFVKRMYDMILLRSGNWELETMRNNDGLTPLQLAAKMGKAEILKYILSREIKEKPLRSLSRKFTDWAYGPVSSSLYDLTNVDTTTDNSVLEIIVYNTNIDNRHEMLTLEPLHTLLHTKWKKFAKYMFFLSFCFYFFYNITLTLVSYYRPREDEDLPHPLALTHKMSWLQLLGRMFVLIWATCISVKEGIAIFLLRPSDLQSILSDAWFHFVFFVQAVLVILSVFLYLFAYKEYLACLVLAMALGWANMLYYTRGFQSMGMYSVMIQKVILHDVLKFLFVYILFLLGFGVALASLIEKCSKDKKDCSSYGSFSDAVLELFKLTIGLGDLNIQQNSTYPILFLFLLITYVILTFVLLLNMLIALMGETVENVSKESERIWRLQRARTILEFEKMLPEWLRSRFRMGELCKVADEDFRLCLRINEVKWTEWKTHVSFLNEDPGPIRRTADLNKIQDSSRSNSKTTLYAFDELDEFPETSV
Nature of the experiment: patch-clamp, reversible potentiation of 2-APB response in inside-out patches. It counts as cell-based. For orientation: Patch clamp records ionic current or voltage across a cell membrane.

On to `CC(C)=C[C@H]1C[C@H](C)[C@]2(CC[C@]3(C)C[C@H]4[C@H](C(=O)C[C@@]4(C)O)/C(C=O)=C\C[C@H]32)O1` [ophiobolin A], for which the “patch-clamp, reversible potentiation of 2-APB response in inside-out patches” value is “some CaM inhibitors such as ophiobolin A and W-7 may directly interfere with the gating of TRPV3”.
